Measurements taken from US9278963B2, “Pyrimidine hydroxy amide compounds as histone deacetylase inhibitors” (Acetylon Pharmaceuticals, Inc., priority 2013, dated 2016).

Columns and labels:
[1] = test system: SK-N-BE(2) or SH-SY5Y neuroblastoma cells; assay: Neuroblastoma differentiation index; format: cell-based; details: for differentiation index, low-concentration ATRA: 0.25 μM ATRA, alone or with HDAC inhibitor; for differentiation index: varying concentrations, alone
Method: SK-N-BE(2) or SH-SY5Y neuroblastoma cells were treated with varying concentrations of either Compound X or Y, and/or ATRA (all trans retinoic acid). The differentiation index was measured.
SK-N-BE(2) or SH-SY5Y neuroblastoma cells were treated with varying concentrations of either Compound X or Y, and/or ATRA (all trans retinoic acid). The differentiation index was measured. As a control, SK-N-BE(2) or SH-SY5Y neuroblastoma cells were treated with varying concentrations of ATRA.

[2] = test system: SH-SY5Y neuroblastoma cells; assay: Neuroblastoma cell cycle by flow cytometry, SH-SY5Y; format: cell-based; details: for percent of the cell population in G2, S, G1 and Sub G1 phase: 72 hours, 0.5, 2 and 5 μM (ATRA 1 μM); for cell cycle stages and fold change of p21: 4 days
Method: The following is a quick summary of the neuroblastoma cell cycle experiments. Adherent cells were plated into 12-well plates at 10^6 cells/well and allowed to adhere for 2-4 hours. Compounds were dispensed in DMSO at the indicated concentrations using an automated liquid handling system (Tecan D300) and incubated for the indicated times at 37° C. with 5% CO2. Cells were harvested with enzyme-free cell disassociation solution and washed with buffered saline. Cells were fixed overnight with 100% ethanol. Cell cycle was assessed by flow cytometry using the Molecular Probes FxCycle PI/RNase Staining Solution kit according to manufacture protocols.
The protocol for the cell cycle experiments was as follows. The day before the experiment, the cells were fed in the flask by doubling the media. Then, the cells were harvested by adding non-enzymatic cell dissociation media and incubating at 37° C. for 15 minutes. Next, the cells were transferred to a 50 ml tube and pipet to create a single-cell suspension. The cells were then washed with PBS buffer. Then, the cells were resuspended in complete media at 5×10^5 cells per ml. Next, 2 ml of cells were transferred to 12-well plates. Then, the treatment compounds were dispensed into each well using the D300 liquid handler. The cells were incubated for the indicated time at 37° C. Then, the cells were harvested by adding 500 μl enzyme free cell dissociation solution and incubating at 37° C. for 15 minutes. Next, the cells were spun into a pellet and then washed with PBS. Then, 500 μl 100% EtOH was added and incubated at 4° C. overnight. Then, the cells were washed 3× with PBS. The cells were then resuspended in […] FxCycle PI/RNase solution, and incubated for 2-4 hours at room temperature. Finally, the cells were assayed by flow cytometry.
SH-SY5Y neuroblastoma cells were treated with varying concentrations of either Compound X or Y, and/or ATRA (all trans retinoic acid). […] In addition, the fold change of p21 was also calculated. […] The HDACi/ATRA combination effects were modest, with little difference compared to single agents.

HDAC1 = HDAC1 (Homo sapiens (Human), UniProt Q13547); assay: HDAC enzyme assay, HDAC1; format: biochemical
Chain of HDAC1 (Q13547 whole entry): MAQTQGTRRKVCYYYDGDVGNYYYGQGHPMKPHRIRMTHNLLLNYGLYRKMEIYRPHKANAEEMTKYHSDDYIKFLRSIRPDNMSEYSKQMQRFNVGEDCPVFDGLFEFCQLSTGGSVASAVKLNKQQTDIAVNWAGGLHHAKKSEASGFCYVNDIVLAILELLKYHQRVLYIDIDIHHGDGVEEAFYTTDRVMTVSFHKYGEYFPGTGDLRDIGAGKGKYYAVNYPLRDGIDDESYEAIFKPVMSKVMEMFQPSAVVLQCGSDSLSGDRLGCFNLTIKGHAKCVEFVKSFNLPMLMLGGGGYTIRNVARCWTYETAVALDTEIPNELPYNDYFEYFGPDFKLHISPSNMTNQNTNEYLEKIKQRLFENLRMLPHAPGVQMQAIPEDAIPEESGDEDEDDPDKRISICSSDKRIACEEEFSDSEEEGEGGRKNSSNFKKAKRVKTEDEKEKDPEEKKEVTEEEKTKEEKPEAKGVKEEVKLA
Method: (§1) Compounds for testing were diluted in DMSO to 50 fold the final concentration and a ten point three fold dilution series was made. The compounds were diluted in assay buffer (50 mM HEPES, pH 7.4, 100 mM KCl, 0.001% Tween-20, 0.05% BSA, 20 μM TCEP) to 6 fold their final concentration. The HDAC enzymes (purchased from BPS Biosciences) were diluted to 1.5 fold their final concentration in assay buffer. The tripeptide substrate and trypsin at 0.05 μM final concentration were diluted in assay buffer at 6 fold their final concentration. The final enzyme concentrations used in these assays were 3.3 ng/ml (HDAC1), 0.2 ng/ml (HDAC2), 0.08 ng/ml (HDAC3) and 2 ng/ml (HDAC6). The final substrate concentrations used were 16 μM (HDAC1), 10 μM (HDAC2), 17 μM (HDAC3) and 14 μM (HDAC6).
(§2) Five μl of compounds and 20 μl of enzyme were added to wells of a black, opaque 384 well plate in duplicate. Enzyme and compound were incubated together at room temperature for 10 minutes. Five μ1 of substrate was added to each well, the plate was shaken for 60 seconds and placed into a Victor 2 microtiter plate reader. The development of fluorescence was monitored for 60 min and the linear rate of the reaction was calculated. The IC50 was determined using Graph Pad Prism by a four parameter curve fit.

HDAC2 = HDAC2 (Homo sapiens (Human), UniProt Q92769); assay: HDAC enzyme assay, HDAC2; format: biochemical
Chain of HDAC2 (Q92769 whole entry): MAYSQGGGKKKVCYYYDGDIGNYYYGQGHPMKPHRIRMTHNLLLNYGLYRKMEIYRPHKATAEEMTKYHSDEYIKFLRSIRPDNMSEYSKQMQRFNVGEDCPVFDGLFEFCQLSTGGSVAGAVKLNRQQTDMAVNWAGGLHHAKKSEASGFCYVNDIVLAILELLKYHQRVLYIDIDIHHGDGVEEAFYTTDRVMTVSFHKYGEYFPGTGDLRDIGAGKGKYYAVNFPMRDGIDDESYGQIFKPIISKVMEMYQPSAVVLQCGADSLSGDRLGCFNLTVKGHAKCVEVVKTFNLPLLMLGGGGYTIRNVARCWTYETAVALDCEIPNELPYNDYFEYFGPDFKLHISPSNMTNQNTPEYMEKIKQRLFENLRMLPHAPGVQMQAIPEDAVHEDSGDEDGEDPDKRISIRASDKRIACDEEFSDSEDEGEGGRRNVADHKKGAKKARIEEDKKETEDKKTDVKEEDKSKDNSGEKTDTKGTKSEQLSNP
Method: as §1, §2

HDAC3 = HDAC3 (Homo sapiens (Human), UniProt O15379); assay: HDAC enzyme assay, HDAC3; format: biochemical
Chain of HDAC3 (O15379 whole entry): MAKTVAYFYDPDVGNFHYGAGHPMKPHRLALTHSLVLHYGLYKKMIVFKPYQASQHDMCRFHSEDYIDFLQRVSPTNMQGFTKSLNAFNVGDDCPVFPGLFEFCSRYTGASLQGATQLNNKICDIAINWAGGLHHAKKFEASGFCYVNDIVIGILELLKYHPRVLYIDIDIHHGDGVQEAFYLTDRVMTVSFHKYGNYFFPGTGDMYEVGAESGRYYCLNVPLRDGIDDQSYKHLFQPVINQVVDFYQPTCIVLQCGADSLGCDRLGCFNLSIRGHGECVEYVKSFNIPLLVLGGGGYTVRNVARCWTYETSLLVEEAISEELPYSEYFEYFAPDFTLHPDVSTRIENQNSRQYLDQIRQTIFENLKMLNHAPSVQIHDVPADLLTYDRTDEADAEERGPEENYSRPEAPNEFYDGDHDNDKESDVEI
Chain of HDAC3 (Q9Y618 395-489 partner): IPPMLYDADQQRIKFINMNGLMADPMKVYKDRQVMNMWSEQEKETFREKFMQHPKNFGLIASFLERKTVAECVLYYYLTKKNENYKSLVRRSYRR
Method: as §1, with “The HDAC enzymes (purchased from BPS Biosciences) were diluted to 1.5 fold their final concentration in assay buffer.” left out, “(HDAC6).” for “(HDAC6). The final substrate concentrations used were 16 μM (HDAC1), 10 μM (HDAC2), 17 μM (HDAC3) and 14 μM (HDAC6).”
as §2

HDAC6 = HDAC6 (Homo sapiens (Human), UniProt Q9UBN7); assay: HDAC enzyme assay, HDAC6; format: biochemical
Chain of HDAC6 (Q9UBN7 whole entry): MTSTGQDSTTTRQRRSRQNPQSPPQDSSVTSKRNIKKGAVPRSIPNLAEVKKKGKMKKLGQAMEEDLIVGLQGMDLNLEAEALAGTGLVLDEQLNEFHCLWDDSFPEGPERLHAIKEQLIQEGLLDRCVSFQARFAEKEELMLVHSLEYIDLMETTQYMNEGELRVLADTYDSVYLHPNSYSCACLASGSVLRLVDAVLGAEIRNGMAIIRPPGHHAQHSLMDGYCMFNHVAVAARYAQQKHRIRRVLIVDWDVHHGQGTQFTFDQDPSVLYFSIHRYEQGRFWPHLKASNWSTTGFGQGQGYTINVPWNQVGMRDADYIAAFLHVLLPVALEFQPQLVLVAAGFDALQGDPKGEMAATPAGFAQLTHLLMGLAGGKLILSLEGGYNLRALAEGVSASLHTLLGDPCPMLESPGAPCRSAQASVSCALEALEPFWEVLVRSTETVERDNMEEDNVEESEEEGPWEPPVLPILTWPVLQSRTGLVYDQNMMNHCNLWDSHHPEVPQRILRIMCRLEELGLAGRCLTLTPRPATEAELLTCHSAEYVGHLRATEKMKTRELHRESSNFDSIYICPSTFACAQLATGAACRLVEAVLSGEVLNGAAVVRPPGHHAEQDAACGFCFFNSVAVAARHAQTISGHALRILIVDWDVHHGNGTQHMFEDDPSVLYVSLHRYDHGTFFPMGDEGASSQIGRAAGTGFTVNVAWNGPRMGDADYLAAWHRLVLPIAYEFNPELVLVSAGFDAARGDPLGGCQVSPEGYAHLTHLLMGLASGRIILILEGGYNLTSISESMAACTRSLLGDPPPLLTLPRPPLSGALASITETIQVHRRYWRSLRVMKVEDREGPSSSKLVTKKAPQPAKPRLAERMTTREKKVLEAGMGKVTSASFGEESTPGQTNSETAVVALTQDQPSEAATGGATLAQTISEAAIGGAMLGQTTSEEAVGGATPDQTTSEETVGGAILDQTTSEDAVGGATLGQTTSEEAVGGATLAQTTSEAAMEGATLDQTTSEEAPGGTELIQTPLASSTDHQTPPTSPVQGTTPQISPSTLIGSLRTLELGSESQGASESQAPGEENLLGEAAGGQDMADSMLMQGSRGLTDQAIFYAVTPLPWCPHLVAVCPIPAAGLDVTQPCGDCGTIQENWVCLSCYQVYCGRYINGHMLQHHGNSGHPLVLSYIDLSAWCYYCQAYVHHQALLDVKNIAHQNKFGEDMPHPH
Method: as §1
as §2, with “fit. The IC50 values obtained for several of the compounds of this invention are found in Table 1.” for “fit.”

[3] = test system: human CD34+ bone marrow cells; assay: Cellular viability of cultured CD34+ bone marrow cells; details: 1 μM, treatment for 4 days
[4] = test system: BE(2)-C neuroblastoma cells; assay: Neuroblastoma maturation gene expression, BE(2)-C; format: cell-based
Method: (§3) The following is a quick summary of the HDAC neuroblastoma maturation experiments. Adherent cells were plated into 12- or 24-well plates at 10^6 cells/well and allowed to adhere for 2-4 hours. Compounds were dispensed in DMSO at the indicated concentrations using an automated liquid handling system (Tecan D300) and incubated for the indicated times at 37° C. with 5% CO2. Cells were harvested and RNA extracted using the Qiagen RNeasy Mini Kit according to manufacture protocols. The RNA was quantified and relative expression levels were assessed using the Applied Biosystems TaqMan RNA-to-Ct Kit according to manufacture protocols using the indicated TaqMan probes.
(§4) The protocol for the maturation experiments was as follows. The day before the experiment, the cells were fed in the flask by doubling the media. The cells were then harvested by adding non-enzymatic cell dissociation media and incubating at 37° C. for 15 minutes. The cells were transferred to a 50 ml tube and pipet to create a single-cell suspension. The cells were washed with PBS buffer. The cells were then resuspended in complete media at 5×10^5 cells per ml. Next, 2 ml of cells were transferred to 24- or 12-well plates. The treatment compounds were then dispensed into each well using the D300 liquid handler. The cells were then incubated for the indicated time at 37° C. The cells were harvested by scraping the cells and transferring to a 2 ml tube. The cells were spun to form a pellet. Next, RNA was extracted using the Qiagen RNeasy Mini kit according to manufacture protocols. The RNA concentration was recorded. The relative RNA levels were assessed using the Applied Biosystems TaqMan RNA-to-Ct kit according to manufacture protocols using the indicated Taqman probes.

[5] = test system: SK-N-BE(2) neuroblastoma cells; assay: Neuroblastoma cell cycle and p21, SK-N-BE(2); format: cell-based; details: 4 days
Method: SK-N-BE(2) neuroblastoma cells were treated with varying concentrations of either Compound X or Y, and/or ATRA (all trans retinoic acid). The percentage of the population of the cells at various stages of the cell cycle were measured after 4 days. In addition, the fold change of p21 was also calculated. […] The HDACi/ATRA combination effects were modest, with little difference compared to single agents.

[6] = test system: SH-SY5Y neuroblastoma cells; assay: Neuroblastoma maturation gene expression, SH-SY5Y; format: cell-based; details: 72 hours, 1 μM
Method: as §3
as §4, with “The treatment compounds were then dispensed into each well using the D300 liquid handler. The cells were then incubated for the indicated time at 37° C. The cells were harvested by scraping the cells and transferring to a 2 ml tube. The cells were spun to form a pellet. Next, RNA was extracted using the Qiagen RNeasy Mini kit according to manufacture protocols.” left out

Row | SMILES | differentiation index, low-concentration ATRA [1] | IC50 (HDAC1) | IC50 (HDAC2) | IC50 (HDAC3) | IC50 (HDAC6) | other results
1 | CC1=C(/C=C/C(C)=C/C=C/C(C)=C/C(=O)O)C(C)(C)CCC1 [ATRA, all trans retinoic acid, reference compound] | sub-optimal | – | – | – | – | percent of the cell population in G2, S, G1 and Sub G1 phase [2]: little impact on cell cycle
2 | O=C(NO)c1cnc(NC2(c3ccccc3)CCN(S(=O)(=O)c3ccccc3)CC2)nc1 [Compound 023, N-hydroxy-2-((4-phenyl-1-(phenylsulfonyl)piperidin-4-yl)amino)pyrimidine-5-carboxamide] | – | 844 nM | 829 nM | 3540 nM | 4.6 nM | –
3 | O=C(NO)c1cnc(NC2(c3ccccc3)CCN(C(=O)Nc3c(F)cccc3F)CC2)nc1 [Compound 024, 2-((1-((2,6-difluorophenyl)carbamoyl)-4-phenylpiperidin-4-yl)amino)-N-hydroxypyrimidine-5-carboxamide] | – | 22 nM | 22 nM | 761 nM | 3.7 nM | –
4 | C[C@@H](C(=O)N1CCC(C)(Nc2ncc(C(=O)NO)cn2)CC1)c1ccccc1 [Compound 027, (R)—N-hydroxy-2-((4-methyl-1-(2-phenylpropanoyl)piperidin-4-yl)amino)pyrimidine-5-carboxamide] | – | 130 nM | 103 nM | 422 nM | 12 nM | –
5 | O=C(NO)c1cnc(NC2(c3ccccc3)CCN(C(=O)Cc3c[nH]c4ccccc34)CC2)nc1 [Compound 028, 2-((1-(2-(1H-indol-3-yl)acetyl)-4-phenylpiperidin-4-yl)amino)-N-hydroxypyrimidine-5-carboxamide] | – | 3 nM | 2 nM | 24 nM | 2.8 nM | –
6 | O=C(NO)c1cnc(NC2(c3ccccc3)CCN(C(=O)Cc3cc4ccccc4[nH]3)CC2)nc1 [Compound 031, 2-((1-(2-(1H-indol-2-yl)acetyl)-4-phenylpiperidin-4-yl)amino)-N-hydroxypyrimidine-5-carboxamide] | – | 10 nM | 9 nM | 42 nM | 5 nM | –
7 | O=C(CCCCCCNC(=O)c1cnc(N(c2ccccc2)c2ccccc2)nc1)NO [Compound A, 2-(diphenylamino)-N-(7-(hydroxyamino)-7-oxoheptyl) pyrimidine-5-carboxamide, reference compound] | – | – | – | – | – | decrease in cells viability [3]: 20 fold
8 | Nc1ccc(-c2cccs2)cc1NC(=O)c1ccc2c(c1)cc(C1CC1)n2CCN1CCOCC1 [Compound X, N-(2-amino-5-(thiophen-2-yl)phenyl)-2-cyclopropyl-1-(2-morpholinoethyl)-1H-indole-5-carboxamide] | potentiated 0.25 μM ATRA | 6 nM | 36 nM | 445 nM | – | fold change of genes associated with maturation ([4]; 72 hours, 1 μM): alters genes associated with maturation; fold change of genes associated with maturation ([4]; 4 days, 0.5, 1 and 3 μM): alters genes associated with maturation; cell cycle stages and fold change of p21 [5]: induced cell cycle arrest; fold change of genes associated with maturation [6]: alters genes associated with maturation; differentiation index [1]: induced an increase in the differentiation index; percent of the cell population in G2, S, G1 and Sub G1 phase [2]: induced similar cell cycle changes in all treatment groups; cell cycle stages and fold change of p21 [2]: induced cell cycle arrest
9 | O=C(CCCCCCNC(=O)c1cnc(N(c2ccccc2)c2ccccc2Cl)nc1)NO [Compound Y, 2-((2-chlorophenyl)(phenyl)amino)-N-(7-(hydroxyamino)-7-oxoheptyl)pyrimidine-5-carboxamide] | potentiated 0.25 μM ATRA | – | – | – | – | cell cycle stages and fold change of p21 [5]: induced cell cycle arrest; differentiation index [1]: induced an increase in the differentiation index; cell cycle stages and fold change of p21 [2]: induced cell cycle arrest
